Test results published in PubChem BioAssay AID1902 (Broad Institute, 2009).
Active and inactive are the calls of the source.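 How the source made its calls: active means EC50 no more than a set limit of log units above the highest dose; inactive means the rest.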

Each molecule was assayed against S. pyogenes SKKanGAS, kanamycin survival, BacTiterGlo, 6 h (assay: S. pyogenes SKKanGAS kanamycin growth inhibitors – SKKanGAS strain, luminescence, dose confirmation, streptokinase promoter inhibitor project, dose response (AID 1902);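 further: lower survival reflects blocked streptokinase promoter driving kanamycin resistance gene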).

SMILES	EC50
CCOc1ccc(Nc2cc(C)nc(-n3nc(C)cc3C)n2)cc1	14 µM
C[C@@]12CCC=C[C@H]1[C@H](c1ccc3ccccc3c1Br)N(Cc1ccccc1)C2=O	3.63 µM
CCn1cc(C(=O)O)c(=O)c2cc(F)c(N3CCN(S(=O)(=O)c4ccc(NC(C)=O)cc4)CC3)cc21	4.65 µM
CCOC(=O)c1nn(-c2cccc(OC)c2)c2nc(Nc3ccccc3)cc(=O)n12	4.15 µM
Cc1ccc(Cl)cc1N1CCN(C(=O)c2cn(C)c(=O)c3c2c2ccccc2n3C)CC1	4.92 µM
Cc1ccc(/C=C/C(=O)c2ccccc(=O)c2O)cc1C	4.04 µM
O=C(CCN1C(=O)/C(=C/c2ccccc2Cl)SC1=S)NNC(=O)c1ccccc1O	3.35 µM
CCc1ccc(/C=C2\SC(=S)N(CCCC(=O)Nc3ccccc3C(=O)O)C2=O)cc1	3.35 µM
COc1ccc(NC(=O)c2cc(-c3cc(C)cc(C)c3O)n[nH]2)cc1Cl	2.25 µM
COc1ccc2[nH]c3c(C)c4ccncc4c(C)c3c2c1	1.87 µM
CCCCCCCn1c(=O)c(C(=O)Nc2cnccn2)c(O)c2ccccc21	2.16 µM
Cc1ccccc1C(=O)Nc1scc(-c2ccc(Br)cc2)c1C(=O)O	1.82 µM
CC1(C)N=C(N)N=C(N)N1c1ccc(Oc2ccc(Cl)cc2)c(Cl)c1	< 0.06 µM
COc1ccc(C(=O)NC(=S)NNC(=O)COc2ccccc2)cc1	0.666 µM
CCCCCCCCCCOC(=O)Cn1c(COc2ccccc2OC)[n+](C)c2ccccc21	7.28 µM
Cc1nn(Cc2ccccc2Cl)c2sc(C(=O)Nc3ccccc3N3CCOCC3)cc12	2.92 µM
Cc1cc(S(=O)(=O)NCCC2=CCCCC2)ccc1Br	5.43 µM
C=C(C)COc1ccc(-c2n[nH]c(C)c2-c2ccccc2)c(O)c1	2.4 µM
CC(C)C(Sc1nc(-c2ccccc2)cc(-c2ccccc2)c1C#N)C(=O)O (stereo not given)	2.04 µM
COc1ccc(OCC(=O)NNC(=S)NC(=O)C2CC2)cc1	4.11 µM
CCOC(=O)/C(=N/Nc1ccccc1)c1csc(Nc2ccccc2)n1	3.22 µM
FC(F)Sc1ccc(NC(=S)NC(c2ccccc2)c2ccccc2)cc1	2.28 µM
COc1ccc(/C=C/C(=O)NC(=S)NNC(=O)c2ccco2)cc1OC	4.08 µM
O=C(Nc1cccc(Cl)c1N1CCCCC1)c1ccc2c(c1)OCCO2	10.5 µM
Cc1nn2c(N3CCN(C(=O)c4ccco4)CC3)cc(C(C)(C)C)nc2c1-c1ccccc1	6.19 µM
CC1Oc2cc3c(-c4c(O)cc(O)c5c(O)c6c(cc45)OC(C)C(C)C6=O)c(O)cc(O)c3c(O)c2C(=O)C1C (stereo not given)	0.319 µM
O=C(Nc1nc2ccccc2n1CCOc1ccccc1)c1ccco1	6.87 µM

SMILES	EC50
O=C(Cn1nc2ccccc2n1)N/N=C/c1cc([N+](=O)[O-])ccc1O	0.73 µM
O=C(/C=C1\NC2(CCCC2)Cc2ccccc21)C(=O)N/N=C/c1ccccc1O	2.27 µM
Cc1cc2nc(CSc3ccccc3)cc(=O)n2[nH]1	3.82 µM
Cc1cccc(Cn2nc(-n3cccc3)c3c(C)cc(C)nc32)c1	6.78 µM
CC1C/C(=N\NC(=S)NCc2ccccc2)CC(C)(C)C1 (stereo not given)	3.96 µM
O=C(O)CN1C(=O)/C(=C\c2cc(Br)ccc2OCc2ccc(Cl)cc2Cl)SC1=S	1.51 µM
O=C(O)c1ccc(S(=O)(=O)/N=C2\C=C(Nc3ccccc3F)C(=O)c3ccccc32)cc1	3.1 µM
COc1ccccc1-c1n[nH]c2c1[C@H](C)CC[C@H]2C(C)C	2.81 µM
Nc1nonc1-c1nc2ccccc2n1CC(=O)N/N=C\c1ccc(-c2ccc(Cl)cc2)o1	1.07 µM
Cc1c(Cl)c(C(F)F)nn1CC(=O)NC1C(=O)N2C(C(=O)O)=C(CSc3nnnn3C)CSC12 (stereo not given)	< 0.06 µM
COc1ccc(C(=O)N/N=C/c2cc(Br)ccc2O)cc1OC	1.28 µM
Cn1cccc1C(=O)Nc1nc(-c2ccccn2)cs1	12.4 µM
O=C(Nc1cccc(Cl)c1)Nc1csc([N+](=O)[O-])c1	8.11 µM
CCc1c(C)sc2nc(C(C)C)nc(SCC(=O)N3CCc4ccccc4C3)c12	7.89 µM
COc1ccc(-c2cc(-c3ccc(C)cc3)n[nH]2)c(O)c1	2.76 µM
Cc1ccccc1OCC(=O)Nc1ccccc1N1CCC(C)CC1	7.48 µM
O=C(NNC(=O)c1cc(-c2ccc(Cl)cc2)nc2ccccc12)c1csc(N2CCOCC2)n1	3.78 µM
CCCCSc1ccc2nc(-c3ccc(C#N)cc3)cn2c1	7.72 µM
O=C(Nc1ccc(OCC(F)(F)C(F)F)c(C(F)(F)F)c1)c1ccc(Cl)cc1	3.62 µM
CC(C)c1ccc2c(c1)C1(NN=C(c3ccccc3)S1)C(=O)N2 (stereo not given)	< 0.06 µM
N#Cc1ccc(Cl)cc1NC(=O)CSc1nc2nc(-c3cccs3)cc(C(F)(F)F)c2c(=O)[nH]1	4.97 µM
Cc1cc(C)cc(C(=O)N2CCC(CCC(=O)NC3CC3)CC2)c1	> 15 µM (inactive)
O=C(O)CCCN1C(=O)/C(=C\c2ccc(-c3nc4ccccc4s3)o2)SC1=S	4.89 µM
Cc1ccc(SCC(=O)N2c3ccccc3Sc3ccccc32)cc1	3.78 µM
CCOc1ccc(-n2cc(-c3ccccc3)c3c(=S)nc[nH]c32)cc1	5.73 µM
N#C/C(=N\Nc1ccc(S(=O)(=O)N2CCc3ccccc32)cc1)C(N)=S	11.3 µM
O=C(Nc1cccc(-c2nnc(-c3ccccc3)o2)c1)c1ccc(Br)o1	8.48 µM

SMILES	EC50
Cc1ccc(NS(=O)(=O)c2ccc(C3CCCCC3)cc2)cc1	4.32 µM
CC(C)(C)c1ccc(O)c(N=Cc2c(O)ccc3ccccc23)c1	5.12 µM
CCc1ccc(-c2cc(C(=O)N/N=C/c3c[nH]c4ccccc34)[nH]n2)cc1	5.96 µM
Oc1cccc2ccc(/C=C/c3ccccc3Br)nc12	0.158 µM
N#C/C(=N\Nc1ccc(S(=O)(=O)N2CCOCC2)cc1)C(N)=S	> 15 µM (inactive)
Cc1nn(Cc2ccc(C(=O)Nc3nc4c(C)cccc4s3)o2)c(C)c1Br	2.85 µM
CC(=O)[C@@]1(O)C(C)CC2C3C=C(C)C4=Cc5c(cnn5-c5ccccc5)C[C@]4(C)C3C(O)C[C@@]21C (stereo not given in full)	3.56 µM
C=CC(C)(C)c1c(O)c(CC=C(C)C)c(O)c2c(=O)c3ccc(O)c(O)c3oc12	1.8 µM
N=C1SCC(=O)N1c1ncc(Cc2ccc(F)cc2)s1	1 µM
CC1(C)S[C@@H]2[C@H](NC(=O)COc3ccccc3)C(=O)N2C1C(=O)OCC1CCCCC1 (stereo not given in full)	8 µM
COc1ccc(Nc2ncnc3scc(-c4ccc(OC)cc4)c23)cc1	> 15 µM (inactive)
O=C(Nc1cccnc1)Nc1cc(Cl)cc(Cl)c1	8.7 µM
COc1ccc(-c2nn(-c3ccccc3)cc2/C=C2/SC(=S)N(CCC(=O)O)C2=O)cc1	1.83 µM
COc1ccc(O)c(/C=N/Nc2nc(Nc3ccccc3)nc(-n3nc(C)cc3C)n2)c1	0.868 µM
CC1(C)S[C@@H]2[C@H](NC(=O)Cc3ccccc3)C(=O)N2[C@H]1C(=O)O	< 0.06 µM
C/C(=N\NC(=O)COc1ccccc1-c1ccccc1)c1ccccn1	0.667 µM
Cc1csc(NC(=O)COCC(=O)O)c1-c1nc2ccccc2s1	6.45 µM
Cc1ccc(Cc2cnc(N3C(=N)SC(C)C3=O)s2)cc1 (stereo not given)	0.298 µM
Cc1nnc(SCC2=C(C(=O)O)N3C(=O)C(NC(=O)Cn4nc(C(F)F)c(Cl)c4C)C3SC2)s1 (stereo not given)	< 0.06 µM
Cc1[nH]cnc1C(=O)N/N=C/c1ccc([N+](=O)[O-])s1	3.73 µM
CNc1ccc2oc(C[C@H]3O[C@@]4(CC[C@H]3C)O[C@H]([C@H](C)C(=O)c3ccc[nH]3)[C@H](C)C[C@H]4C)nc2c1C(=O)O	< 0.06 µM
Cc1nc2c(C(=O)NCc3ccc4c(c3)OCO4)cnn2c(C)c1Cc1ccc(F)cc1Cl	14.7 µM
C[C@H]1COC2=C1C(=O)C(=O)c1c2ccc2c1CCCC2(C)C	3.95 µM
CC1(C)CN=C(Nc2nc3ccccc3s2)S1	6.75 µM
COc1cc(/C=C/C(=O)c2ccc([N+](=O)[O-])o2)ccc1O	2.98 µM
Cc1cc(C)nc(-n2nc(C)c(Sc3ccc(F)cc3)c2N)n1	> 15 µM (inactive)
CC(=O)O[C@H]1C[C@@]2(C)[C@@H](C[C@@H](O)[C@H]3[C@@]4(C)CC[C@@H](O)[C@@H](C)C4CC[C@@]32C)/C1=C(\CCC=C(C)C)C(=O)O (stereo not given in full)	1.58 µM

SMILES	EC50
C=C(C)C1Cc2c(C)nn(-c3nc(C)cc(C)n3)c2C1 (stereo not given)	0.694 µM
CC(C)(C)c1cc(NCc2ccccn2)n2ncc(-c3ccccc3)c2n1	0.171 µM
CCCCNc1c(-c2ccc(OC)c(SC3CCCCC3)c2)nc2cnccn12	3.62 µM
COc1ccccc1N1CCN(C(=O)/C=C/c2ccc(C)cc2)CC1	> 15 µM (inactive)
Cc1ccc(/C=C/C2=NN(Cc3ccc(Cl)c(Cl)c3)C(=O)CC2)cc1	7.83 µM
O=[N+]([O-])c1ccc(NCc2ccc(Cl)cc2)c2ccncc12	9.29 µM
COC(=O)/C=C1\SC(=Nc2ccc(Cl)c(Cl)c2)NC1=O	8.93 µM
CCC(O)(CC)C(=O)N/N=C/c1cc(Br)cc(Br)c1O	2.64 µM
CCOc1ccc2c(c1)C(=NNC(=O)c1ccncc1)c1cc(OCC)ccc1-2	1.57 µM
CC(C)CC(=O)NC(NC(=S)Nc1sc2c(c1C#N)CCCC2)C(Cl)(Cl)Cl (stereo not given)	1.66 µM
COC(=O)c1c(NC(=O)c2ccccc2)sc(C(=O)c2ccccc2)c1C	5.41 µM
O=C(/C=C/c1c[nH]c2ccccc12)c1c(O)n(CCc2ccccc2)c(=O)[nH]c1=O	3.11 µM
O=C(Nc1nc2ccc(SC(F)F)cc2s1)c1ccc(NS(=O)(=O)c2ccc(F)c(F)c2)cc1	1.89 µM
O=C(Nc1cc(Cl)ccc1-n1cncn1)c1ccc([N+](=O)[O-])o1	6.73 µM
Cc1noc(C)c1CSCC(=O)Nc1nc2ccc(Oc3ccccc3)cc2s1	4.85 µM
Nc1ncc(Br)cc1S(=O)(=O)Nc1cc(C(F)(F)F)cc(C(F)(F)F)c1	6.39 µM
COc1ccc(N=C2S/C(=C\c3ccc(OC(C)C(=O)O)c(OC)c3)C(=O)N2CCc2c[nH]c3ccccc23)cc1 (stereo not given)	1.63 µM
COc1ccccc1-n1c(SCC(=O)Nc2ccc(C)cc2)nc(O)cc1=O	13.6 µM
CSCC[C@H](NC(=O)c1nn(C)c(=O)c2ccccc12)c1nc2ccccc2[nH]1	2.85 µM
Cc1ccccc1-c1cc(-c2ccccc2O)n[nH]1	12.3 µM
Cc1ccc(C[n+]2c(-c3ccc(C)cc3)cc(-c3ccc(C)cc3)cc2-c2ccc(C)cc2)cc1	4.06 µM
O=C(NNC(=S)NC(=O)c1ccco1)c1ccc(NC(=O)c2ccccc2)cc1	1.21 µM
COC(=O)C1(C(C[N+](=O)[O-])c2ccc(C)cc2)C(=O)NCC1c1ccco1 (stereo not given)	7.39 µM
O=C(O)c1ccccc1-c1ccccc1C(=O)Nc1ccc(-c2nc3cc(Cl)ccc3o2)cc1	5.3 µM
